IC50 data for 20 compounds are collected here from patent publication US7425551B2, “Malonamide derivatives” (Hoffmann-La Roche Inc., priority 2006, dated 2008).

SMILES strings stand for the structures. pIC50: −log10 of the molar value.

This experiment addresses T1, γ-secretase (Homo sapiens, UniProt P49768).
T1 construct: uses a HEK293 membrane fraction as a source of γ-secretase; endogenous in cells; host or cells: HEK293 (microsomal membrane fraction, solubilised in 0.25% CHAPSO)
Kind of experiment: in vitro assay of γ-secretase activity (HEK293 membrane fraction, recombinant APP substrate, Abeta ELISA). Type of experiment: biochemical. Conditions: γ-secretase inhibition; HEK293 membrane fraction solubilized in 0.25% CHAPSO, recombinant human APP C-terminal 100 amino acids substrate, Abeta detected by ELISA. The text has this: Description of 1γ-Secretase Assay The activity of test compounds can be evaluated in assays which measure the proteolytic cleavage of suitable substrates by γ-secretase activity. These can be cellular assays where e.g., a substrate of the γ-secretase is fused in its cytoplasmic domain to a transcription factor. Cells are transfected with this fusion gene and a reporter gene, e.g., firefly luciferase, which expression is enhanced by the transcription factor. Cleavage of the fused substrate by γ-secretase will lead to expression of the reporter gene which can be monitored in appropriate assays. The γ-secretase activity can also be determined in cell-free in vitro assays where e.g., a cell lysate containing the γ-secretase complex is incubated with a suitable APP-derived substrate which is cleaved to the Abeta peptides. The amount of produced peptides can be determined with specific ELISA assays. Cell lines of neuronal origin secrete Abeta peptides which can be measured with the specific ELISA assay. Treatment with compounds which inhibit γ-secretase leads to a reduction of secreted Abeta thus providing a measure of inhibition. The in vitro assay of γ-secretase activity uses a HEK293 membrane fraction as a source of γ-secretase and a recombinant APP substrate. Latter consist of the C-terminal 100 amino acids of human APP fused to a 6× Histidin tail for purification which is expressed in E. coli in a regulatable expression vector, e.g. pEt15. This recombinant protein corresponds to the truncated APP fragment which results after […] of the extracellular domain and which constitutes the γ-secretase substrate. The assay principle is described in Li Y M et al, PNAS 97(11), 6138-6143 (2000). Hek293 cells are mechanically disrupted and the microsomal fraction is isolated by differential centrifugation. The membranes are solubilized in detergent (0.25% CHAPSO) and incubated with the APP substrate. The Abeta peptides which are produced by γ-secretase cleavage of the substrate are detected by specific ELISA assays as described (Brockhaus M et al, Neuroreport 9(7), 1481-1486 (1998).
(An ELISA detects its analyte on a solid surface through an enzyme-linked reagent.)

The pIC50 is the IC50 on a negative log10 scale, so that one unit is a factor of ten. Take `C[C@](F)(C(=O)NCCC(F)(F)C(F)(F)F)C(=O)N[C@@H]1C(=O)N(CCOCc2ccccc2)c2ccccc2-c2ccccc21` [Example 44, (S)—N—[(S)-5-(2-Benzyloxy-ethyl)-6-oxo-6,7-dihydro-5H-dibenzo[b,d]azepin-7-yl]-2-fluoro-2-methyl-N′-(3,3,4,4,4-pentafluoro-butyl)-malonamide]: the pIC50 was 8.05. `C[C@H](OC(=O)NCCF)C(=O)N[C@@H]1C(=O)N(CCO)c2ccccc2-c2ccccc21` [Example 47, (2-Fluoro-ethyl)-carbamic acid (S)-1-[(S)-5-(2-hydroxy-ethyl)-6-oxo-6,7-dihydro-5H-dibenzo[b,d]azepin-7-ylcarbamoyl]-ethyl ester]: the pIC50 was 6.12. With `C[C@H](OC(=O)NCC(F)(F)F)C(=O)N[C@@H]1C(=O)N(CCO)c2ccccc2-c2ccccc21` [Example 48, (2,2,2-Trifluoro-ethyl)-carbamic acid (S)-1-[(S)-5-(2-hydroxy-ethyl)-6-oxo-6,7-dihydro-5H-dibenzo[b,d]azepin-7-ylcarbamoyl]-ethyl ester], the pIC50 was 7.85. Turning to `C[C@](F)(C(=O)NCC(F)(F)F)C(=O)N[C@@H]1C(=O)N(CCO)c2ccccc2-c2ccccc21` [Example 49, (S)-2-Fluoro-N—[(S)-5-(2-hydroxy-ethyl)-6-oxo-6,7-dihydro-5H-dibenzo[b,d]azepin-7-yl]-2-methyl-N′-(2,2,2-trifluoro-ethyl)-malonamide], the pIC50 was 6.80. The value for `C[C@](F)(C(=O)NCCC(F)(F)C(F)(F)F)C(=O)N[C@@H]1C(=O)N(CCO)c2ccccc2-c2ccccc21` [Example 50, (S)-2-Fluoro-N—[(S)-5-(2-hydroxy-ethyl)-6-oxo-6,7-dihydro-5H-dibenzo[b,d]azepin-7-yl]-2-methyl-N′-(3,3,4,4,4-pentafluoro-butyl)-malonamide] was 7.80; that for `C[C@@](F)(C(=O)NCCC(F)(F)F)C(=O)N[C@@H]1C(=O)N(CCOCc2ccccc2)c2ccccc2-c2ccccc21` [Example 51, (R)—N—[(S)-5-(2-Benzyloxy-ethyl)-6-oxo-6,7-dihydro-5H-dibenzo[b,d]azepin-7-yl]-2-fluoro-2-methyl-N′-(3,3,3-trifluoro-propyl)-malonamide] was 8.15. Take `C[C@@](F)(C(=O)NCC(F)(F)F)C(=O)N[C@@H]1C(=O)N(CCOCc2ccccc2)c2ccccc2-c2ccccc21` [Example 52, (R)—N—[(S)-5-(2-Benzyloxy-ethyl)-6-oxo-6,7-dihydro-5H-dibenzo[b,d]azepin-7-yl]-2-fluoro-2-methyl-N′-(2,2,2-trifluoro-ethyl)-malonamide]: the pIC50 is 8.00. Take `C[C@@](F)(C(=O)NCC(F)(F)F)C(=O)N[C@@H]1C(=O)N(CCO)c2ccccc2-c2ccccc21` [Example 53, (R)-2-Fluoro-N—[(S)-5-(2-hydroxy-ethyl)-6-oxo-6,7-dihydro-5H-dibenzo[b,d]azepin-7-yl]-2-methyl-N′-(2,2,2-trifluoro-ethyl)-malonamide]: the pIC50 is 8.05. Regarding `C[C@@](F)(C(=O)NCCC(F)(F)F)C(=O)N[C@@H]1C(=O)N(CCO)c2ccccc2-c2ccccc21` [Example 54, (R)-2-Fluoro-N—[(S)-5-(2-hydroxy-ethyl)-6-oxo-6,7-dihydro-5H-dibenzo[b,d]azepin-7-yl]-2-methyl-N-(3,3,3-trifluoro-propyl)-malonamide], the pIC50 was 8.10. To `CC(O)(C(=O)NCCC(F)(F)C(F)(F)F)C(=O)N[C@@H]1C(=O)N(CCOCc2ccccc2)c2ccccc2-c2ccccc21` (stereo partly drawn) [Example 55, N—[(S)-5-(2-Benzyloxy-ethyl)-6-oxo-6,7-dihydro-5H-dibenzo[b,d]azepin-7-yl]-2-hydroxy-2-methyl-N′-(3,3,4,4,4-pentafluoro-butyl)-malonamide] belongs 7.92; to `CC(O)(C(=O)NCCC(F)(F)C(F)(F)F)C(=O)N[C@@H]1C(=O)N(CCO)c2ccccc2-c2ccccc21` (stereo partly drawn) [Example 56, 2-Hydroxy-N—[(S)-5-(2-hydroxy-ethyl)-6-oxo-6,7-dihydro-5H-dibenzo[b,d]azepin-7-yl]-2-methyl-N′-(3,3,4,4,4-pentafluoro-butyl)-malonamide], 8.70; to `C[C@@](O)(C(=O)NCC(F)(F)F)C(=O)N[C@@H]1C(=O)N(CCOCc2ccccc2)c2ccccc2-c2ccccc21` [Example 57, (R)—N—[(S)-5-(2-Benzyloxy-ethyl)-6-oxo-6,7-dihydro-5H-dibenzo[b,d]azepin-7-yl]-2-hydroxy-2-methyl-N′-(2,2,2-trifluoro-ethyl)-malonamide], 7.05. Consider `C[C@](O)(C(=O)NCC(F)(F)F)C(=O)N[C@@H]1C(=O)N(CCOCc2ccccc2)c2ccccc2-c2ccccc21` [Example 58, (S)—N—[(S)-5-(2-Benzyloxy-ethyl)-6-oxo-6,7-dihydro-5H-dibenzo[b,d]azepin-7-yl]-2-hydroxy-2-methyl-N′-(2,2,2-trifluoro-ethyl)-malonamide], for which the pIC50 is 8.10.

Consider `C[C@@](O)(C(=O)NCC(F)(F)F)C(=O)N[C@@H]1C(=O)N(CCO)c2ccccc2-c2ccccc21` [Example 59, (R)-2-Hydroxy-N—[(S)-5-(2-hydroxy-ethyl)-6-oxo-6,7-dihydro-5H-dibenzo[b,d]azepin-7-yl]-2-methyl-N′-(2,2,2-trifluoro-ethyl)-malonamide], for which the pIC50 is 6.72.

Turning to `C[C@](O)(C(=O)NCC(F)(F)F)C(=O)N[C@@H]1C(=O)N(CCO)c2ccccc2-c2ccccc21` [Example 60, (S)-2-Hydroxy-N—[(S)-5-(2-hydroxy-ethyl)-6-oxo-6,7-dihydro-5H-dibenzo[b,d]azepin-7-yl]-2-methyl-N′-(2,2,2-trifluoro-ethyl)-malonamide], the pIC50 was 8.40.

In the case of `CC(O)(C(=O)NCCC(F)(F)F)C(=O)N[C@@H]1C(=O)N(CCOCc2ccccc2)c2ccccc2-c2ccccc21` (stereo partly drawn) [Example 63, N—[(S)-5-(2-Benzyloxy-ethyl)-6-oxo-6,7-dihydro-5H-dibenzo[b,d]azepin-7-yl]-2-hydroxy-2-methyl-N′-(3,3,3-trifluoro-propyl)-malonamide], the pIC50 was 8.70.

For `COCCN1C(=O)[C@@H](NC(=O)C(C)(C)C(=O)NCC(F)(F)C(F)(F)F)c2ccccc2-c2ccccc21` [Example 67, N—[(S)-5-(2-Methoxy-ethyl)-6-oxo-6,7-dihydro-5H-dibenzo[b,d]azepin-7-yl]-2,2-dimethyl-N′-(2,2,3,3,3-pentafluoro-propyl)-malonamide], the pIC50 is 8.30. Turning to `COCCN1C(=O)[C@@H](NC(=O)C(OC)C(=O)NCC(F)(F)C(F)(F)F)c2ccccc2-c2ccccc21` (stereo partly drawn) [Example 68, 2-Methoxy-N—[(S)-5-(2-methoxy-ethyl)-6-oxo-6,7-dihydro-5H-dibenzo[b,d]azepin-7-yl]-N′-(2,2,3,3,3-pentafluoro-propyl)-malonamide], the pIC50 is 8.05. Regarding `CC(C)(C(=O)NCC(F)(F)C(F)(F)F)C(=O)N[C@@H]1C(=O)N(CCOc2ccc(F)cc2)c2ccccc2-c2ccccc21` [Example 69, N-{(S)-5-[2-(4-Fluoro-phenoxy)-ethyl]-6-oxo-6,7-dihydro-5H-dibenzo[b,d]azepin-7-yl}-2,2-dimethyl-N′-(2,2,3,3,3-pentafluoro-propyl)-malonamide], the pIC50 was 8.22. On to `CC(C)OCCN1C(=O)[C@@H](NC(=O)C(C)(C)C(=O)NCC(F)(F)C(F)(F)F)c2ccccc2-c2ccccc21` [Example 70, N—[(S)-5-(2-Isopropoxy-ethyl)-6-oxo-6,7-dihydro-5H-dibenzo[b,d]azepin-7-yl]-2,2-dimethyl-N′-(2,2,3,3,3-pentafluoro-propyl)-malonamide], for which the pIC50 is 8.15.
